Reference: PubChem BioAssay (NCI)
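How tested: cells in 96-well plates exposed to compound for 48 hours at five concentrations. GI50 marks 50% less growth. TGI marks complete inhibition of growth.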

Tests used:
Test in all cases: growth of human tumour cells (NCI), 48 h
[1] = tested on: MOLT-4 leukemia
[2] = tested on: MCF7 breast
[3] = tested on: HCT-116 colon
[4] = tested on: SN12C renal
[5] = tested on: OVCAR-5 ovarian
[6] = tested on: NCI/ADR-RES ovarian
[7] = tested on: MDA-MB-435
[8] = tested on: SF-295 CNS
[9] = tested on: UACC-257 melanoma
[10] = tested on: U251 CNS
[11] = tested on: PC-3 prostate
[12] = tested on: EKVX NSCLC
[13] = tested on: OVCAR-3 ovarian
[14] = tested on: SNB-19 CNS
[15] = tested on: HS 578T breast
[16] = tested on: HL-60(TB) leukemia
[17] = tested on: UACC-62 melanoma
[18] = tested on: NCI-H23 lung
[19] = tested on: K-562 leukemia
[20] = tested on: A549 NSCLC
[21] = tested on: LOX IMVI melanoma
[22] = tested on: OVCAR-4 ovarian
[23] = tested on: ACHN renal
[24] = tested on: SW-620 colon
[25] = tested on: HCT-15 colon
[26] = tested on: COLO 205 colon
[27] = tested on: TK-10 renal
[28] = tested on: MDA-MB-231 breast
[29] = tested on: SK-OV-3 ovarian
[30] = tested on: A498 renal
[31] = tested on: NCI-H522 lung
[32] = tested on: MALME-3M melanoma
[33] = tested on: BT-549 breast
[34] = tested on: RPMI-8226 leukemia
[35] = tested on: HT29 colon
[36] = tested on: SF-268 CNS
[37] = tested on: SK-MEL-28 melanoma
[38] = tested on: HOP-62 NSCLC
[39] = tested on: CCRF-CEM leukemia
[40] = tested on: NCI-H226 lung
[41] = tested on: CAKI-1 renal
[42] = tested on: HCC-2998 colon
[43] = tested on: SK-MEL-5 melanoma
[44] = tested on: UO-31 renal
[45] = tested on: 786-0 renal
[46] = tested on: IGROV1 ovarian
[47] = tested on: SK-MEL-2 melanoma
[48] = tested on: RXF 393 renal
[49] = tested on: M14 melanoma
[50] = tested on: DU-145 prostate
[51] = tested on: OVCAR-8 ovarian
[52] = tested on: KM12 colon
[53] = tested on: SR leukemia
[54] = tested on: NCI-H460 lung
[55] = tested on: SF-539 CNS
[56] = tested on: T-47D breast
[57] = tested on: SNB-75 CNS
[58] = tested on: HOP-92 NSCLC

CC(C)(C)c1ccc(Oc2ccc(N)cn2)cc1
GI50 [1]: 3.96 µM
TGI [1]: > 100 µM
GI50 [2]: 46.5 µM
TGI [2]: > 100 µM
GI50 [3]: 47.5 µM
TGI [3]: > 100 µM
GI50 [4]: 4.64 µM
TGI [4]: > 100 µM
GI50 [5]: > 100 µM
TGI [5]: > 100 µM
GI50 [6]: 51.6 µM
TGI [6]: > 100 µM
GI50 [7]: 72.9 µM
TGI [7]: > 100 µM
GI50 [8]: 45.8 µM
TGI [8]: > 100 µM
GI50 [9]: 37.8 µM
TGI [9]: > 100 µM
GI50 [10]: 49.2 µM
TGI [10]: > 100 µM
GI50 [11]: 8.02 µM
TGI [11]: > 100 µM
GI50 [12]: 28.2 µM
TGI [12]: > 100 µM
GI50 [13]: 26 µM
TGI [13]: > 100 µM
GI50 [14]: > 100 µM
TGI [14]: > 100 µM
GI50 [15]: 43.9 µM
TGI [15]: > 100 µM
GI50 [16]: 0.545 µM
TGI [16]: 17.4 µM
GI50 [17]: 61.3 µM
TGI [17]: > 100 µM
GI50 [18]: 53 µM
TGI [18]: > 100 µM
GI50 [19]: 30.1 µM
TGI [19]: > 100 µM
GI50 [20]: 9.19 µM
TGI [20]: > 100 µM
GI50 [21]: 60.1 µM
TGI [21]: > 100 µM
GI50 [22]: 32.8 µM
TGI [22]: > 100 µM
GI50 [23]: > 100 µM
TGI [23]: > 100 µM
GI50 [24]: > 100 µM
TGI [24]: > 100 µM
GI50 [25]: 43.9 µM
TGI [25]: > 100 µM
GI50 [26]: 50.7 µM
TGI [26]: > 100 µM
GI50 [27]: > 100 µM
TGI [27]: > 100 µM
GI50 [28]: 31.7 µM
TGI [28]: > 100 µM
GI50 [29]: > 100 µM
TGI [29]: > 100 µM
GI50 [30]: 11.7 µM
TGI [30]: > 100 µM
GI50 [31]: 9.46 µM
TGI [31]: > 100 µM
GI50 [32]: 39.7 µM
TGI [32]: > 100 µM
GI50 [33]: 11.3 µM
TGI [33]: 99.8 µM
GI50 [34]: 1.99 µM
TGI [34]: 41.2 µM
GI50 [35]: 47.2 µM
TGI [35]: > 100 µM
GI50 [36]: 5.77 µM
TGI [36]: > 100 µM
GI50 [37]: 75.9 µM
TGI [37]: > 100 µM
GI50 [38]: > 100 µM
TGI [38]: > 100 µM
GI50 [39]: 1.06 µM
TGI [39]: > 100 µM
GI50 [40]: 44.5 µM
TGI [40]: > 100 µM
GI50 [41]: 21 µM
TGI [41]: > 100 µM
GI50 [42]: > 100 µM
TGI [42]: > 100 µM
GI50 [43]: 25.8 µM
TGI [43]: 79.2 µM
GI50 [44]: 1.75 µM
TGI [44]: > 100 µM
GI50 [45]: 16.8 µM
TGI [45]: > 100 µM
GI50 [46]: > 100 µM
TGI [46]: > 100 µM
GI50 [47]: > 100 µM
TGI [47]: > 100 µM
GI50 [48]: 49.6 µM
TGI [48]: > 100 µM
GI50 [49]: 56.4 µM
TGI [49]: > 100 µM
GI50 [50]: 38.2 µM
TGI [50]: > 100 µM
GI50 [51]: 75.6 µM
TGI [51]: > 100 µM
GI50 [52]: 44.2 µM
TGI [52]: > 100 µM
GI50 [53]: 30 µM
TGI [53]: > 100 µM
GI50 [54]: 72.3 µM
TGI [54]: > 100 µM
GI50 [55]: 18.8 µM
TGI [55]: > 100 µM
GI50 [56]: 26.2 µM
TGI [56]: > 100 µM
GI50 [57]: 10.9 µM
TGI [57]: > 100 µM

COc1ccc(/C(COc2ccc3oc(-c4ccccc4)cc(=O)c3c2)=N\O)cc1
GI50 [1]: 0.678 µM
TGI [1]: > 50 µM
GI50 [2]: < 0.005 µM
TGI [2]: 11.6 µM
GI50 [3]: < 0.005 µM
TGI [3]: 9.36 µM
GI50 [4]: 0.231 µM
TGI [4]: 4.54 µM
GI50 [5]: 0.377 µM
TGI [5]: > 25.5 µM
GI50 [6]: 0.11 µM
TGI [6]: 5.51 µM
GI50 [7]: < 0.005 µM
TGI [7]: < 0.005 µM
GI50 [8]: < 0.005 µM
TGI [8]: 0.154 µM
GI50 [9]: 0.316 µM
GI50 [10]: 0.13 µM
TGI [10]: 12.2 µM
GI50 [11]: 0.202 µM
TGI [11]: > 19.2 µM
GI50 [12]: 0.229 µM
TGI [12]: 1.91 µM
GI50 [13]: < 0.005 µM
TGI [13]: 0.0538 µM
GI50 [14]: 8.57 µM
TGI [14]: > 36.5 µM
TGI [16]: > 23.2 µM
GI50 [17]: 0.0338 µM
TGI [17]: 2.22 µM
GI50 [18]: 0.189 µM
TGI [18]: 9.75 µM
TGI [19]: > 33.3 µM
GI50 [20]: 0.133 µM
TGI [20]: > 50 µM
GI50 [21]: 0.0322 µM
TGI [21]: 2.69 µM
GI50 [22]: 10.4 µM
TGI [22]: > 29.9 µM
GI50 [23]: 0.331 µM
TGI [23]: 20 µM
GI50 [24]: 0.382 µM
TGI [24]: > 50 µM
GI50 [25]: 0.0264 µM
GI50 [26]: 0.606 µM
TGI [26]: 19.2 µM
GI50 [27]: 0.149 µM
TGI [27]: 9.75 µM
GI50 [28]: 0.182 µM
TGI [28]: 9.17 µM
GI50 [29]: 0.747 µM
TGI [29]: > 33.5 µM
GI50 [31]: 1.87 µM
TGI [31]: 39.5 µM
GI50 [33]: 0.836 µM
TGI [33]: 5.5 µM
GI50 [34]: 0.196 µM
TGI [34]: 20 µM
GI50 [35]: 0.783 µM
TGI [35]: > 50 µM
GI50 [36]: 0.162 µM
TGI [36]: 1.36 µM
GI50 [37]: 0.65 µM
TGI [37]: 5.13 µM
GI50 [38]: 1.72 µM
TGI [38]: > 50 µM
GI50 [58]: > 31.2 µM
TGI [58]: > 50 µM
GI50 [39]: 0.346 µM
TGI [39]: > 50 µM
GI50 [40]: 12.3 µM
TGI [40]: > 50 µM
GI50 [41]: 0.0618 µM
TGI [41]: 24.7 µM
GI50 [42]: 0.145 µM
TGI [42]: 0.983 µM
GI50 [43]: 0.93 µM
TGI [43]: 7.98 µM
GI50 [44]: 1.6 µM
TGI [44]: > 50 µM
GI50 [45]: 0.855 µM
TGI [45]: > 35.6 µM
GI50 [46]: < 0.005 µM
TGI [46]: > 50 µM
GI50 [47]: 32.1 µM
TGI [47]: > 50 µM
GI50 [48]: 47.4 µM
TGI [48]: > 50 µM
GI50 [49]: 0.321 µM
TGI [49]: > 50 µM
GI50 [50]: 2.27 µM
TGI [50]: 13.4 µM
GI50 [51]: 0.209 µM
GI50 [52]: 0.0245 µM
TGI [52]: 1.89 µM
TGI [53]: > 50 µM
GI50 [54]: 0.0882 µM
TGI [54]: > 16.3 µM
GI50 [55]: 1.25 µM
TGI [55]: 2.72 µM
GI50 [56]: 2.41 µM
TGI [56]: > 50 µM
GI50 [57]: 1.3 µM
TGI [57]: 23.2 µM
